One may read the IC50 as the point on the concentration scale where inhibition reaches its midpoint.

The source made the active and inactive calls.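 How the source made its calls: active means IC50 at or below a set limit; inactive means the rest.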 A value given as a limit tells only on which side of the number the result lay.

This is an account of results in PubChem BioAssay AID602217 (Sanford-Burnham Center for Chemical Genomics, 2012).

In the test the test system is HL-1 cardiomyocytes, 2-deoxyglucose injury, ATPLite luminescence, 2 h. Description: 2-DG-induced HL-1 ATP loss suppression – cell-based, ATPLite luminescence, dose response (AID 602217;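 further: cells kept in glucose-free DMEM during the 2-deoxyglucose injury; potency of protection where actives preserve ATP signal against 2-deoxyglucose stress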). (In general: In ATP-based viability assays light output follows the ATP content of the culture.)
Take `NC(=O)c1nsc(C(=O)N(c2ccccc2)C(C(=O)NCc2ccc(F)cc2)c2ccc(O)cc2)c1N` (stereo unspecified): the IC50 was 19.8 µM.

In the case of `COc1ccc(OC)c(/C=N/NC(=O)c2cc3c(OC)c(OC)ccc3[nH]2)c1`, the IC50 is > 79 µM (inactive).

For `Cc1[nH]c2ccccc2c1/C=N/NC(=O)c1cc(-c2ccccc2)n[nH]1`, the IC50 was 22.8 µM (inactive).

As for `COc1cccc(C(=O)Nc2c(C(N)=O)oc3ccccc23)c1`, the IC50 was 33.6 µM (inactive).

In the case of `O=C(NCC(=O)N(Cc1ccccc1)C(C(=O)NC1CCCCC1)c1ccco1)c1ccco1` (stereo unspecified), the IC50 is > 79 µM (inactive).

`CCN(CC(=O)Nc1ccc(OC)cc1)C(=O)c1cc(-c2cccs2)nn1-c1ccccc1`: the IC50 was 17.6 µM.

For the compound `COc1cc(NC(=O)c2cc3nc(-c4ccccc4)cc(-c4ccccc4)n3n2)cc(OC)c1OC`, the IC50 was 23.9 µM (inactive).

`Cn1c(=O)c2[nH]c(NN=Cc3cccc(Br)c3)nc2n(C)c1=O`: the IC50 was 17.9 µM.

As to `Brc1cc2c(cc1/C=N/Nc1nc(N3CCCC3)nc(N3CCOCC3)n1)OCO2`, the IC50 is > 79 µM (inactive).

`Cc1ccc(C)c(NC(=O)C(Sc2nc3ccccc3c(=O)n2CC(C)C)c2ccccc2)c1` (stereo unspecified): the IC50 was 1.14 µM.

On to `CCCNC(=O)c1ccc(N2CCC3(CC2)CC(c2ccccc2)=NO3)c(NC(=O)c2ccco2)c1`, for which the concentration for half-maximal inhibition (IC50) was 10.3 µM.

Take `O=C(CCCN1C(=O)c2cccc3cccc(c23)C1=O)N1CCN(c2ccccc2O)CC1`: the IC50 is 27.4 µM (inactive).

Consider `Cc1[nH]c2ccccc2c1/C=N/NC(=O)c1cc(-c2cccs2)[nH]n1`, for which the IC50 was > 79 µM (inactive).

In the case of `CCOc1cc(/C=C(\C#N)C(=O)Nc2ccc(S(N)(=O)=O)cc2)ccc1OCCN1CCOCC1`, the IC50 was > 79 µM (inactive).

Turning to `O=C(NCC(=O)N(Cc1cccs1)C(C(=O)NC1CCCCC1)c1ccco1)c1ccco1` (stereo unspecified), the IC50 is > 79 µM (inactive).

On to `COCCN1Cc2cccc(C(=O)Nc3cccc(-c4nc5ccccc5[nH]4)c3)c2C1=O`, for which the IC50 was 8.5 µM.

`CC(=O)Nc1ccc(S(=O)(=O)N(Cc2cccnc2)Cc2cc3ccccc3[nH]c2=O)cc1`: the IC50 was 30.8 µM (inactive).

Turning to `COc1cc(-c2cc(NC(C)=O)c3ncc(-c4ccc(C(C)=O)cc4)n3c2)cc(OC)c1OC`, the IC50 is > 79 µM (inactive).

Regarding `O=C(Nc1cc(S(=O)(=O)N2CCOCC2)ccc1N1CCCCC1)c1cc(-c2ccccn2)nc2ccccc12`, the IC50 was 21 µM (inactive).

Take `COC(=O)c1ccc(N)c(N=CC2=C(O)CC(C)(C)CC2=O)c1`: the IC50 was > 79 µM (inactive).

On to `COc1ccc(-c2ccc3c(c2)S(=O)(=O)c2cccc(C(=O)N4CCN(c5c(Cl)cncc5Cl)CC4)c2C3=O)cc1OC`, for which the IC50 was 13.7 µM.

With `COc1cc2[nH]c(=O)n3nc(-c4ccccc4)nc3c2cc1OC`, the IC50 is 35.3 µM (inactive).

As to `CCOc1ccccc1NC(=O)c1oc2ccccc2c1NC(=O)C1CCCO1` (stereo unspecified), the IC50 was > 79 µM (inactive).

With `CCOC(=O)c1ccc(NC(=O)c2nc[nH]c2C(=O)NCCCCCNC(=O)OC(C)(C)C)cc1`, the IC50 is > 79 µM (inactive).

On to `NC(=O)c1nsc(C(=O)N(c2ccccc2)C(C(=O)NC2CCCC2)c2ccc3ncccc3c2)c1N` (stereo unspecified), for which the 50% inhibitory concentration (IC50) is 13.2 µM.

For `COc1cccc(Nc2nc3ccccc3n3cnnc23)c1`, the IC50 was > 79 µM (inactive).

`COc1ccc(/C=N/NC(=O)c2ccc(COc3cccc4cccnc34)cc2)cc1OC`: the IC50 is > 79 µM (inactive).

On to `CC(=O)c1ccc(-c2cnc3c(NC=O)cc(-c4cccc(NS(C)(=O)=O)c4)cn23)cc1`, for which the IC50 is > 79 µM (inactive).

For the compound `Cc1ccc(-n2cc(-c3ccccc3)c3c(N4CCOCC4)ncnc32)cc1`, the concentration for half-maximal inhibition (IC50) is 7.85 µM.

Regarding `C[C@@H]1CN([C@@H](C)CO)C(=O)c2cc(NC(=O)Nc3ccccc3)ccc2O[C@H]1CN(C)C(=O)Nc1cccc2ccccc12`, the IC50 is > 79 µM (inactive).

For the compound `COc1ccc(C(=O)Nc2cccc(NC(=O)c3ccc(OC)c(OC)c3)n2)cc1OC`, the IC50 is 11.2 µM.
